In US11910798B2, “Compositions including a vacancy-engineered (VE)-ZnO nanocomposite, methods of making the compositions and methods of using the compositions” (priority 2015, dated 2024) one finds MIC data, which are given here for one compound.

The subject of the test is E. coli. The test can be described thus: MIC against E. coli. In kind it is cell-based. Particulars: Escherichia coli, read-out: MIC (μg/mL) in metallic Zn or Cu. The text has this:
Table 1 illustrates the minimum inhibitory concentration against E. coli for various agents.

On to `O=C([O-])c1ccccc1O.[Na+]` [Capping Agent, sodium salicylate], for which the MIC came to 3000 µg/mL.
